Assay results reported in US12729458B2, “Discovery and evolution of biologically active metabolites” (The Regents of the University of Colorado, a Body Corporate, priority 2020, dated 2026).
“Also recorded” adds a separate entry of the source. Read-outs that look alike come from different tables or passages of the source.

What was measured:
PTP1B (PTP1B1-321) = biological target: T1, PTP1B (PTP1B1-321) (Homo sapiens, UniProt P18031); experiment: PTP1B-catalyzed hydrolysis of pNPP in the presence of terpenoids (enzyme kinetics, IC50 from best-fit models); type: biochemical, H. sapiens; conditions: for IC50: 15 mM pNPP, 10% DMSO; for Ki: PTP1B1-321
T1 construct: His-tag; made in house; host or cells: E. coli BL21 (DE3), pET21b
T1 sequence (P18031 1-321): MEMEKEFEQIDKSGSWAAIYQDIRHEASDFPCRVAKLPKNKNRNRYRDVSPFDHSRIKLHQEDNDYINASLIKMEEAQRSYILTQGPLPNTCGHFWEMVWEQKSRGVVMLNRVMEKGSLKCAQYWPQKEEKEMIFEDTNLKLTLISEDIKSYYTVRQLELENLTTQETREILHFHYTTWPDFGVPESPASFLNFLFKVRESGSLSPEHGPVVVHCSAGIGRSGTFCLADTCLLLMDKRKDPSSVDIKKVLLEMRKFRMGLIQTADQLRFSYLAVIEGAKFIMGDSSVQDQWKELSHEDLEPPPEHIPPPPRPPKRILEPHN
Procedure: Enzyme kinetics. To examine terpenoid-mediated inhibition, PTP1B-catalyzed hydrolysis of p-nitrophenyl phosphate (pNPP) was measured in the presence of various concentrations of terpenoids. Each reaction included PTP1B ([…]), pNPP (0.33, 0.67, 2, 5, 10, and 15 mM), inhibitors (110 μM, 50 μM, and 15 μM for amorphadiene; 100 μM, 50 μM, and 16.7 μM for taxadiene), and buffer (50 mM HEPES pH=7.5, 0.5 mM TCEP, 50 μg/ml BSA, 10% DMSO). The formation of p-nitrophenol was monitored by measuring absorbance at 405 nm every 10 seconds for 5 minutes on a Spectramax M2 plate reader.
Kinetic models were evaluated in three steps: (i) Initial-rate measurements collected in the absence and presence of inhibitors were fitted to Michaelis-Menten and inhibition models, respectively (here, the nlinfit and fminsearch functions from MATLAB were used). (ii) An F-test was used to compare the mixed model to the single-parameter model with the least sum squared error (here, the fcdf function from MATLAB was used to assign p-values), and the mixed model was accepted when p<0.05.
The MATLAB function “nlparci” was used to determine the confidence intervals of kinetic parameters, and those intervals were propagated to estimate corresponding confidence on IC50's.
(§1) Enzyme kinetics. To examine terpenoid-mediated inhibition, we measured PTP-catalyzed hydrolysis of p-nitrophenyl phosphate (pNPP) or 4-methylumbelliferyl phosphate (4-MUP, used when KM for pNPP was large) in the presence of various concentrations of terpenoids. Each reaction included PTP (0.05 μM PTP1B/TCPTP or 0.1 μM SHP1/SHP2 in 50 mM HEPES, 0.5 mM TCEP, 50 μg/ml BSA), pNPP (0.33, 0.67, 2, 5, 10, and 15 mM) or 4-MUP (0.13, 0.27, 0.8, 2.27, 2.93, 4.53, 7.07, and 8 mM), inhibitor (with concentrations listed in the figures), buffer (50 mM HEPES pH=7.3, 50 μg/ml BSA), and DMSO at 10% v/v. We monitored the formation of p-nitrophenol by measuring absorbance at 405 nm every 10 seconds for 5 minutes on a SpectraMax M2 plate reader and the formation of 4-methylumbelliferyl by measuring fluorescence at 450 nm (370 nm ex, 435 nm cutoff, medium gain).
(§2) We used a custom MATLAB script to process all raw kinetic data. This script removed all concentration values that fell outside of either (i) the range of our standard curve (absorbance/fluorescence vs. μM; FIG. 39) or (ii) the initial rate regime (>10% of the pNPP or 4-MUP concentration used in the assay). When this step reduced kinetic dataset to fewer than ten points, we re-measured those datasets to collect at least ten. We fit final datasets, in turn, with a linear regression model (using Matlab's backslash operator).
We evaluated kinetic models in three steps: (i) We fit initial-rate measurements collected in the absence and presence of inhibitors to Michaelis-Menten and inhibition models, respectively (here, we used the nlinfit and fminsearch functions from MATLAB; TABLE 12). (ii) We used an F-test to compare the mixed model to the single-parameter model with the least sum squared error (here, we used the fedf function from MATLAB to assign p-values), and we accepted the mixed model when p<0.05.

SHP2 (SHP2223-565) = biological target: T2, SHP2 (SHP2223-565) (Homo sapiens, UniProt Q06124); experiment: SHP2-catalyzed hydrolysis of 4-MUP in the presence of terpenoids; type: biochemical, H. sapiens; conditions: for Ki: SHP2223-565
T2 construct: made in house; host or cells: E. coli BL21 (DE3)
T2 sequence (Q06124 223-565 limits assumed): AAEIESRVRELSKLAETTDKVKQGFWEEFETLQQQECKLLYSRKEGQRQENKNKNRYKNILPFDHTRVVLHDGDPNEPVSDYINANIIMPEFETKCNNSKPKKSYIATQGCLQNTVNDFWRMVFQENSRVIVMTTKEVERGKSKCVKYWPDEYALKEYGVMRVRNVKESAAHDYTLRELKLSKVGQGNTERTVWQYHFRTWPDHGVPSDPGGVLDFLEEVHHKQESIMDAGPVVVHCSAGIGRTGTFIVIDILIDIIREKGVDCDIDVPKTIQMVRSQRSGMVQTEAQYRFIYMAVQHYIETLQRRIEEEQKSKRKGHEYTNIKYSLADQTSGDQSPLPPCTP
Procedure: as §1, §2
We evaluated kinetic models in three steps: (i) We fit initial-rate measurements collected in the absence and presence of inhibitors to Michaelis-Menten and inhibition models, respectively (here, we used the nlinfit and fminsearch functions from MATLAB; TABLE 12). (ii) We used an F-test to compare the mixed model to the single-parameter model with the least sum squared error (here, we used the fedf function from MATLAB to assign p-values), and we accepted the mixed model when p<0.05. (iii) We used the Akaike's Information Criterion (AIC) to compare the best-fit single parameter model to each alternative single parameter model, and we accepted the “best-fit” model when the difference in AIC (Δi) exceed 5 for all comparisons.^78 We note: For AD, AB, and (+) 1-(10),4-cadinadiene this criterion was not met; both noncompetitive and uncompetitive models, however, yielded indistinguishable ICso's.
We used the MATLAB function “nlparci” to determine the confidence intervals of kinetic parameters, and we propagated those intervals to estimate corresponding confidence intervals for each IC50.

[1] = Example 2, HEPES pH 7.3, ± 95% confidence interval
[2] = competitive model of inhibition, read-out: Fit par. Ki, competitive model
[3] = mixed model, competitive constant, read-out: Fit par. Ki,c, mixed model
[4] = mixed model, uncompetitive constant, read-out: Fit par. Ki,u, mixed model
[5] = noncompetitive model of inhibition, read-out: Fit par. Ki, noncompetitive model
[6] = uncompetitive model of inhibition, read-out: Fit par. Ki, uncompetitive model

For `C=C(C)[C@@H]1CC[C@@H](C)[C@@H]2CCC(C)=C[C@@H]21` [amorphadiene], the IC50 (PTP1B (PTP1B1-321); Example 1, HEPES pH 7.5) was roughly 53 µM, the IC50 (PTP1B (PTP1B1-321); [1]) was 53 ± 8 µM and the Ki (PTP1B (PTP1B1-321); [2]) was 2.85 µM. The Ki (PTP1B (PTP1B1-321); [3]) was 86.2 µM, the Ki (PTP1B (PTP1B1-321); [4]) was 50.1 µM and the Ki (PTP1B (PTP1B1-321); [5]) was 52.6 µM. The Ki (PTP1B (PTP1B1-321); [6]) was 46.3 µM, the “simultaneous binding with TCS401 (Dixon plot)” value (PTP1B (PTP1B1-321); Vo^−1 vs. [TCS401] at various concentrations of AD) was “cannot bind simultaneously” and the “simultaneous binding with orthovanadate (Dixon plot)” value (PTP1B (PTP1B1-321); Vo^−1 vs. [orthovanadate] at various concentrations of AD) was “can bind simultaneously”. For the same compound, the “model (mode) of PTP1B inhibition from Michaelis-Menten fits” value (PTP1B (PTP1B1-321); pNPP initial rates) was “noncompetitive or uncompetitive inhibition; also recorded: noncompetitive inhibition”, the “potency against SHP2 relative to PTP1B” value (SHP2 (SHP2223-565); 4-MUP, less potent on SHP2) was “three-fold” and the Ki (SHP2 (SHP2223-565); [2]) was 25.1 µM. For the same compound, the Ki (SHP2 (SHP2223-565); [3]) was 236 µM, the Ki (SHP2 (SHP2223-565); [4]) was 132 µM and the Ki (SHP2 (SHP2223-565); [5]) was 146 µM. The Ki (SHP2 (SHP2223-565); [6]) was 117 µM.

In the case of `CC(C)=CCC=C(C)C1CC=C(C)CC1` (stereo not drawn) [α-bisabolene], the IC50 (PTP1B (PTP1B1-321); Example 1, HEPES pH 7.5) is reported as roughly 20 µM, the IC50 (PTP1B (PTP1B1-321); [1]) is reported as 13 ± 2 µM and the Ki (PTP1B (PTP1B1-321); [2]) is reported as 1.05 µM. For the same compound, the Ki (PTP1B (PTP1B1-321); [3]) was 9.51 µM, the Ki (PTP1B (PTP1B1-321); [4]) was 13.7 µM and the Ki (PTP1B (PTP1B1-321); [5]) was 13.1 µM. The Ki (PTP1B (PTP1B1-321); [6]) was 11.7 µM, the “inhibition of SHP2” value (SHP2 (SHP2223-565); 4-MUP) was “low potency” and the “% inhibition of SHP2” value (SHP2 (SHP2223-565); at the solubility limit, 4-MUP) was no more than 25%.
